Assay results: patent publication US20250339531A1, “DUX4 POLYPEPTIDES AND NUCLEIC ACIDS FOR TREATING INFLAMMATORY AND AUTOIMMUNE CONDITIONS” (Fred Hutchinson Cancer Center, priority 2021, published 2025)
“Also recorded” adds a separate entry of the source.

How the values were obtained:
Format in all cases: cell-based, human
[1] = system: interferon-stimulated genes IFIH1, ISG20, CXCL9, and CD74; experiment: IFNG induction of interferon-stimulated genes, RT-qPCR in MB135 cells with doxycycline-inducible transgenes; settings: for suppression of IFNG induction of ISGs (IFIH1, ISG20, CXCL9, CD74): MB135 cells, doxycycline-induced transgene, continuous protocol, IFNG 16 h
Procedure: (§1) All myoblast experiments were conducted in immortalized MB135 or MB200 myoblast cell lines (isolated from a control or FSHD2 subject, respectively cultured in Ham's F-10 Nutrient Mix (Gibco) supplemented with 15% fetal bovine serum (Hyclone), 100 U/100 μg/ml penicillin/streptomycin (Gibco), 1 μM dexamethasone (Sigma), and 10 ng/ml recombinant human basic fibroblast growth factor (PeproTech). To differentiate the myoblasts to myotubes, media was changed to DMEM supplemented with 10 μg/ml insulin (Sigma) and 10 μg/ml transferrin (Sigma). Cell lines containing doxycycline-inducible transgenes were additionally cultured with 2 μg/mL puromycin (Sigma). Transgenes were induced with 1 μg/mL of doxycycline (Sigma) for 4 hours prior to other treatments for a total of 20 hrs. The Kitra-SRS cells (RRID:CVCL_YI69) were provided by Dr. H. Otani and Osaka University (Nakai et al., 2019) and were cultured in DMEM supplemented with 10% fetal bovine serum (Hyclone) and 100 U/100 μg/ml penicillin/streptomycin (Gibco). Biological replicates consisted of independent but parallel experiments, such as simultaneously stimulating three cell culture plates with IFNγ. Technical replicates consisted of repeat measurements of the same biological sample, such as loading the same biological sample in triplicate for analysis by RT-qPCR.
(§2) Myoblasts were transfected with either (final concentrations) 10 μM 2′,3′-cGAMP (Sigma Aldrich), 2 μg/mL poly(I:C) (Invitrogen), or 1 μg/mL 3′ppp-dsRNA RIG-I ligand (Dan Stetson Lab, UW) using Lipofectamine 2000 according to manufacturer's protocol, or were stimulated with 1000U IFNβ (PeproTech) or 200 ng/ml IFNγ (R+D Systems) by addition directly to cell culture medium. After 16 hours of immune stimulation, RNA was collected from cells using the NucleoSpin RNA Kit (Macherey-Nagel) according to manufacturer's instructions. RNA samples were quantified by nanodrop and 1 μg of RNA per sample was treated with DNase I Amplification Grade (Thermo Fisher), and then synthesized into cDNA using the Superscript IV First-Strand Synthesis System, including oligo dT primers (Invitrogen). qPCR was run in 384-well plates on an Applied Biosystems QuantStudio 6 Flex Real-Time PCR System (ABI) and analyzed in Microsoft Excel.

ISG induction by IFNG = experiment: RNA-seq of IFNG-induced genes in MB135 cells; settings: doxycycline + IFNG; for IFNG-induced genes whose induction was suppressed more than 2-fold (percent) / IFNG-induced genes whose induction was suppressed more than 4-fold (percent): genes induced by IFNG (log 2 fold-change >3)
Procedure: RNA was extracted as described above from untreated, doxycycline-treated, IFNγ-treated, or doxycycline- and IFNγ-treated samples. RNA was submitted to the Fred Hutchinson Cancer Research Center Genomics Core for library preparation using the TruSeq3 Stranded mRNA kit (Illumina) followed by size and quality analysis by Tapestation (Agilent). Libraries were sequenced on a NextSeq P2-100 (Illumina).
Sequencing analysis was performed using R version 4.0.3 (R Core Team, 2020). Sequencing reads were trimmed using Trimmomatic (version 0.39) (Bolger et al., 2014, Trimmomatic: a flexible trimmer for Illumina sequence data. Bioinformatics 30, 2114-2120), and aligned to the Homo sapiens GRCh38 reference genome with the Rsubread aligner (Liao et al., 2019, The R package Rsubread is easier, faster, cheaper and better for alignment and quantification of RNA sequencing reads. Nucleic Acids Res 47, e47). Gene counts were analyzed using featureCounts (v2.0.1) (Liao et al., 2019, supra) and the Gencode v35 annotation file. Normalization and differential expression analysis were done with DESeq2 (v1.26.0) (Love et al., 2014, Moderated estimation of fold change and dispersion for RNA-seq data with DESeq2. Genome Biol 15, 550).

ZSCAN4 = experiment: Activation of DUX4 target gene ZSCAN4, RT-qPCR; settings: MB135 cells ± doxycycline
Procedure: as §1, §2

MEL375 cells = experiment: IFNG-induced MHC class I in MEL375 melanoma cells (immunoblot, FACS)
Procedure: Expression of DUX4-CTD fragment suppresses interferon-induced MHC Class I expression and requires intact (L)LxxL(L) motifs. Human melanoma MEL375 cells were transduced with doxycycline inducible vectors expressing the 3×Flag-nls-tagged DUX4 CTD-154-424 (iDUX4-CTD) (SEQ ID NOS: 8-9) or the similar constructs with a mutation in the first (L)LxxL(L) motif and a deletion of the second (L)LxxL(L) motif (iDUX4-mL1dL2) (SEQ ID NOS: 10-11). Cells were treated with doxycycline (1 μg/ml) for four hours followed by the addition of interferon-gamma treatment for 16 hrs (50 ng/ml).

H3.X/Y = experiment: Immunoblot of DUX4 target H3.X/Y proteins; settings: MB135 cells, continuous or pulsed protocol
Procedure: Protein samples were harvested in RIPA buffer [150 mM NaCl, 1% NP-40, 0.5% Na-deocycholate, 1% SDS, 25 mM Tris-HCl pH7.4] supplemented with protease and phosphatase inhibitor tablets (Pierce), followed by sonication in Diagenode Bioruptor. Lysate was cleared by centrifugation at 16000×g and quantified using a Pierce BCA assay (Thermo Fisher Scientific). Samples were run on NuPAGE precast polyacrylamide gels (Invitrogen) and transferred to PVDF membrane. Membranes were blocked in PBS containing 0.1% Tween-20 and 5% non-fat dry milk before overnight incubation at 4° C. with primary antibodies (see resource table for a list of antibodies used in this study). Membranes were incubated with horseradish peroxidase-conjugated secondary antibodies for 1 hour at room temperature and SuperSignal chemiluminescent substrate (Thermo Scientific) was used for detection on film with a Mini-medical 90 processor. Membranes were stripped with Restore Western Blot Stripping Buffer (Pierce).

[2] = system: IFIH1, DDX58, cGAS and Type-1 IFN pathways; experiment: ISG induction by IFNβ, poly(I:C), RIG-I ligand or cGAMP, RT-qPCR in MB135-iDUX4 cells; settings: MB135iDUX4 cells ± doxycycline
Procedure: as §1, with “RT-qPCR. […]” for “RT-qPCR.”

[3] = system: de novo protein synthesis; experiment: HPG Click-iT labeling of nascent proteins; settings: MB135-iDUX4ca myoblasts, 20-96 hours after a pulse
Procedure: Cells were incubated for 30 minutes in DMEM or RPMI media depleted for methionine and cysteine (Gibco), followed by a 1-hour incubation in methionine-depleted media supplemented with 200 μM HPG (Sigma). Cells were fixed with 4% paraformaldehyde (Electron Microscopy Sciences) diluted in PBS for 10 minutes at room temperature and stained with Click-iT HPG Alexa Fluor 488 Protein Synthesis Assay Kit (Invitrogen) according to manufacturer's protocol.

[4] = 113 genes induced by IFNG (log 2 fold-change >3)

Row | Substance | suppression of RNA induction of GBP1, IDO1, CXCL10 by IFNG ([1]; MB135-iDUX4-CTD cells used for STAT1 ChIP) | suppression of IFNG induction of ISGs (IFIH1, ISG20, CXCL9, CD74) [1] | suppression of IFNG induction of ISGs (IFIH1, ISG20, CXCL9, CD74) ([1]; listed as iDUX4-CTD) | IFNG-induced genes whose induction was suppressed more than 2-fold (percent) (ISG induction by IFNG) | IFNG-induced genes whose induction was suppressed more than 4-fold (percent) (ISG induction by IFNG) | transcriptional activation of DUX4 target gene ZSCAN4 (ZSCAN4) | MHC surface protein expression by FACS (MEL375 cells; MEL375 cells, doxycycline then IFNG) | suppression of IFNG-induced MHC class I proteins in MEL375 cells (MEL375 cells; doxycycline 1 μg/ml 4 h then IFNG 50 ng/ml 16 hrs) | suppression of IFNG induction of ISGs (IFIH1, ISG20, CXCL9, CD74) ([1]; listed as iDUX4-CA) | IFNG-induced genes whose induction was suppressed more than 2-fold (number) (ISG induction by IFNG; [4]) | IFNG-induced genes whose induction was suppressed more than 4-fold (number) (ISG induction by IFNG; [4]) | transcriptional activation of DUX4 target gene ZSCAN4 (ZSCAN4; listed as iDUX4-CA) | transcriptional activation of DUX4 target gene ZSCAN4 (ZSCAN4; listed as wild-type DUX4) | induction of DUX4 target H3.X/Y proteins (H3.X/Y) | induction of DUX4 target H3.X/Y proteins (H3.X/Y; listed as full-length DUX4) | suppression of ISG induction by innate immune stimuli (poly(I:C), short dsRNA/RIG-I ligand, cGAMP, IFNβ) [2] | nascent protein synthesis by HPG labeling [3] | suppression of MHC class I proteins in MEL375 cells, pulse protocol (MEL375 cells; Mel375iDUX4)
1 | longCTD: 3×FLAG tag and nls in frame with carboxyterminal 271 amino acids of DUX4 (aa154-424), SEQ ID NOS: 8-9 | robustly suppressed the RNA induction by IFNG | sufficient to block most or all ISG induction by IFNG; also recorded: suppresses three of the four IFNG-induced genes | equally suppressed activation of ISGs | 90% | 52% | transcriptionally silent | decreased MHC surface protein expression | suppresses IFNG induction of MHC proteins | – | – | – | – | – | – | – | – | – | –
2 | DUX4: human DUX4 protein SEQ ID NO:3 expressed from doxycycline inducible codon altered transgene SEQ ID NO:2 | – | blocks induction of ISGs IFIH1 and ISG20 by IFNG and IFNB1; also recorded: robustly blocked | – | 90% | 67% | strongly induced | – | – | suppresses IFNG induction of all for ISGs | 102 genes | 76 genes | robust activator of its target gene ZSCAN4 | Only the wild-type DUX4 shows transcriptional activation of its target gene | activates a DUX4-regulated gene H3.X/Y in both protocols | are induced by the full-length DUX4 | blunted the induction of these genes by each of the stimulated pathways; also recorded: substantially blunted the ISG induction to all treatments; also recorded: pathways that rely on IRFs and STATs are both blocked; also recorded: suppressed the induction of a subset of the panel of ISG genes induced by each ligand; also recorded: CXCL9 was induced by IFNβ, poly(I:C), and the RIG-I ligand but not suppressed by DUX4 | dramatic reduction in HPG-labeled peptides; also recorded: peak suppression occurred forty-four hours after a pulse of DUX4; also recorded: HPG signal largely recovered by ninety-two hours | prolonged suppression of MHC class I proteins in the MEL375 melanoma cell line
